From PMC2692672 (Journal of molecular biology, 2009)

Biological target: GRP94 (Canis lupus, UniProt P41148, DEL287-327)
Assay: co-crystal structure
Assay type: binding

COC(=O)c1c(O)cc(O)c(Cl)c1CCC(=O)NC1=CC(=O)C(OC)=CC1=O [Radamide]
Kd: 520 ± 130 nM
